According to article doi:10.1101/2024.05.30.596624v1 (biorxiv, 2024):
Values after ≈ are worked out from the molar mass of the structure shown.

Key:
in vitro [1] = settings: human, plasma
in vitro [2] = settings: human, hepatocytes
in vitro [3] = settings: human, liver microsomes
HepG2 = assay: cells; settings: Homo sapiens, HepG2, read-out: Hu HepG2 EC50
physchem [4] = settings: 1-octanol/phosphate buffer, pH 7.4
in vitro [5] = settings: human, Caco-2
AMPK α1β2γ1 = AMPK α1β2γ1 (Homo sapiens, UniProt O43741+Q13131); assay: Caliper mobility shift kinase assay, FAM-SAMS peptide; format: biochemical
Chain of AMPK α1β2γ1 (Q13131 whole entry): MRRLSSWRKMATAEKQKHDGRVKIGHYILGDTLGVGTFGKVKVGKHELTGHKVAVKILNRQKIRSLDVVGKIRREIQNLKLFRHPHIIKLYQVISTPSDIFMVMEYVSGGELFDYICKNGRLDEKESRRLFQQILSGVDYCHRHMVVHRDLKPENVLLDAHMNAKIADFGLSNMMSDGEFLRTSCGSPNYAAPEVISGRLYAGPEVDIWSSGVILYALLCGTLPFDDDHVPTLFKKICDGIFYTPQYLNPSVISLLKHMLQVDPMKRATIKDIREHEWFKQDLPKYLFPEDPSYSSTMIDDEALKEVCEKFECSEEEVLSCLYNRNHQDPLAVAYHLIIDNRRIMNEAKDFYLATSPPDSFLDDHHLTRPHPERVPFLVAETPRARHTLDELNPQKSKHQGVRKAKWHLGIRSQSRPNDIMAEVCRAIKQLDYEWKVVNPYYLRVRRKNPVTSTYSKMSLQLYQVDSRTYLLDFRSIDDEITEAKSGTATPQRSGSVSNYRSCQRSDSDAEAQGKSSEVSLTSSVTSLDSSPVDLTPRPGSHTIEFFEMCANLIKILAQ
Chain of AMPK α1β2γ1 (O43741 whole entry): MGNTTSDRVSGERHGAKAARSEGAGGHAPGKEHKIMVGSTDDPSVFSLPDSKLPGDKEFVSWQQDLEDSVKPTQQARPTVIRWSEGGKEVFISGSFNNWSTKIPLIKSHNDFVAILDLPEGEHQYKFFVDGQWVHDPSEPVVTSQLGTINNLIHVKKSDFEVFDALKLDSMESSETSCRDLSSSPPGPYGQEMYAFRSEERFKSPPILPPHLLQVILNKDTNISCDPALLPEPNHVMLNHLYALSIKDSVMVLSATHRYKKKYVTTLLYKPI
Chain of AMPK α1β2γ1 (P54619 whole entry partner): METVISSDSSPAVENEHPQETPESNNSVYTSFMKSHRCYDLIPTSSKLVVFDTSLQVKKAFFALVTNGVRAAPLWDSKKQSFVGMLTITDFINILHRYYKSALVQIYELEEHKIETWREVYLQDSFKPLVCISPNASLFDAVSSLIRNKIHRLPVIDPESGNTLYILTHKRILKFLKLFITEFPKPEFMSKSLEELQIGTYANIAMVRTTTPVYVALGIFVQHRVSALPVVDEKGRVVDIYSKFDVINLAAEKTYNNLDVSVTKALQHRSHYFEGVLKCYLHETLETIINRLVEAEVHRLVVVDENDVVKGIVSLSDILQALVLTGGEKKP

physchem [6] = settings: aqueous phosphate buffer, pH 7.4, aqueous buffer
in vitro [7] = settings: mouse, hepatocytes
in vitro [8] = settings: rat, hepatocytes
AMPK α1β1γ1 = AMPK α1β1γ1 (Homo sapiens, UniProt Q13131+Q9Y478); assay: Caliper mobility shift kinase assay, FAM-SAMS peptide; format: biochemical
Chain of AMPK α1β1γ1 (Q13131 whole entry): as the sequence (Q13131 whole entry) above
Chain of AMPK α1β1γ1 (Q9Y478 2-270): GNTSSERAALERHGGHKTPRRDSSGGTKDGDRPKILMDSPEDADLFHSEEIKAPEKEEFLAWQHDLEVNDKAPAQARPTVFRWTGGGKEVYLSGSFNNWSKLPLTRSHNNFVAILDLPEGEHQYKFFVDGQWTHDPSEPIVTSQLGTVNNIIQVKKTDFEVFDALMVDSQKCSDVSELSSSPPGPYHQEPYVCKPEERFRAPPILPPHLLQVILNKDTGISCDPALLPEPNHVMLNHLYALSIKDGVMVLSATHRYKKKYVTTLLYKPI
Chain of AMPK α1β1γ1 (P54619 whole entry partner): as the sequence (P54619 whole entry partner) above

CS(C)(=O)=Nc1ccc(-c2ccc(-c3nc4[nH]c(O[C@@H]5CO[C@H]6[C@@H]5OC[C@H]6O)nc4cc3Cl)cc2)cc1 [BI9774]
fraction unbound (in vitro [1]): 0.037
hepatocyte CLint (in vitro [2]): < 1 µL/min/1e6 cells
microsomal CLint (in vitro [3]): < 3 µL/min/mg
EC50 (HepG2): 83.2 nM
logD (physchem [4]): 2.8
Papp (in vitro [5]): 26 ×10⁻⁶ cm/s
EC50 (AMPK α1β2γ1): 63.1 ± 14.7 nM
solubility at 27 h (physchem [6]): 8 µM (≈ 4.33 µg/mL)
hepatocyte CLint (in vitro [7]): 8.6 µL/min/1e6 cells
hepatocyte CLint (in vitro [8]): < 1.4 µL/min/1e6 cells
EC50 (AMPK α1β1γ1): 20 ± 9.5 nM
